# Legend:
# [1] = system: keratinocyte-melanocyte co-cultures (Human HaCaT keratinocytes, Human primary melanocytes); test: Induced pigmentation in keratinocyte-melanocyte co-cultures (DOPA staining, computerized image analysis); format: cell-based; details: three daily treatments; for Mean area: DOPA-stained relative pigmented area; for % increase: normalized to control
# Method: The peptides Peptide 1 and Peptide 3 and various pigments were tested, alone or in combination, with keratinocyte-melanocyte cultures for their effect on cell pigmentation, using DOPA staining and computerized image analysis. The pigments that were tested were the pigmented natural extracts Bearberry extract from Alban Muller International (Vincennes, France) and Hedychium spicatum extract sold as Kapur Kachali from Amsar Private Limited (Indore, India), copper chloride from Sigma (St. Louis, Mo.) and the water-soluble melanin derivatives Melasyn-100™ from San-mar laboratories, Inc. (Elmsford, N.Y.) and MelanZe™ from Zylepsis (Ashford, Kent, United Kingdom). The pigments were tested at concentrations ranging from 0.0001%(W/V) to 1%(W/V) and the peptides were tested at 50 μM.
# The assay was conducted in the following manner. Human HaCaT keratinocytes (Boukamp P., et al., J Cell Biol 106, 3, 761-771 (1988)) were maintained in Dulbecco's Modified Eagle's Medium (DMEM) containing 10% fetal bovine serum (FBS), 4.5 mg/ml glucose, 2 mM L-glutamine, 50 U/ml penicillin and 50 μg/ml streptomycin (Life Technologies, Gaithersburg, Md.). Cells were maintained at <80% confluency in 5% CO2 (v/v) and were used in experimental procedures up to culture passage 15. Human primary melanocytes (Clonetics, San Diego, Calif. or Cascade Biologics, Portland, Oreg.) were maintained according to manufacturer's instructions. To establish keratinocyte-melanocyte co-cultures, 6×10^4 melanocytes were plated in each well of a 24 well plate and maintained according to manufacturer's instructions.
# Melanocytes were rinsed three times with melanocyte growth media without PMA and keratinocytes (6×10^4) were plated to establish the co-cultures in this media. Co-cultures were treated for three days with test peptides and pigments, and assayed for cell viability and pigment level on the forth day. Cell viability was assayed using alamarBlue™ (Acumed International, West Lake, Ohio) following manufacturer's instructions. No change in viability was observed following three daily treatments with all tested material. All in vitro experiments were performed in triplicates, and were repeated at least three times.
# Following three daily treatments, the co-cultures were briefly fixed (10% buffered formalin from Fisher Scientific, 15 minutes), washed three times with Phosphate-buffered saline (PBS, from Life Technologies) and stained with L-3,4-Dihydroxyphenylalanine (DOPA, from Sigma, St. Louis, Mo.) 0.1% in PBS, for 5 hours at 37° C., followed by two PBS washes and formalin (10%, overnight) fixation. DOPA is a substrate for tyrosinase, therefore an increase in staining represents increased tyrosinase activity and pigment production. DOPA-stained monolayers were used for image analysis. All images were obtained and analyzed with Image Pro Plus 3.0 software (Media Cybernetics, Silver Spring, Md.). Parameters measured were surface area of stained material within melanocyte and keratinocytes and the total surface area of the cells in the culture, and the relative pigmented area was calculated. A value of 100% was assigned to untreated controls, and values of treatment groups were normalized to their relevant controls. In all experiments there was no difference between PBS-treated cells and untreated controls. Data are presented with standard deviation (SigmaPlot® 5.0, SPSS Science, Chicago, Ill.).
# Forskolin (Sigma, St. Louis, Mo.), a known inducer of pigmentation, served as a positive control and a reference point. Forskolin was administered at 1% (W/V).
# [2] = system: Dark skinned Yucatan microswine; test: Induced pigmentation in vivo, F&M-stained skin sections of topically treated swine; parameters: key: −1: Slight lightening; 0: No change; 1: Minimal increase in pigment deposition; 2: Increased pigment deposition; 3: Strong increase in pigment deposition, some increase in caps; 4: Strong increase in pigment deposition, strong increase in caps; details: topical twice a day, five days/week, eight or nine weeks; peptides 250 or 500 μM, pigments 1% or 5% (W/V), positive controls 1% (W/V); average of all sites of responsive swine
# Method: Compositions of the present invention were tested for their ability to induce in vivo pigmentation in skin cells in the following experiment. Dark skinned Yucatan microswine (Charles River, Portland, Me.) were housed in appropriately sized cages in an environmentally controlled room with a 12-hour light-12-hour dark photoperiod and supplied with food and water ad libitum. Animal care was based on the “Guide for the Care and Use of Laboratory Animals”, NIH Publication No. 85-23. Twenty μl of test peptides were applied topically, twice a day, five days/week, for eight or nine weeks, on the dorsum of the swine. Treatments of individual swine were always arranged in a head to tail order on one side, and in a tail to head order on the other side of the animal. Biopsies were taken using standard techniques.
# Sections from the skin biopsies were stained with Hematoxylin and Eosin (H&E), or with Fontana-Mason (F&M), using standard procedures (Sheenan D C, Hrapckak B B, eds., Theory and Practice of Histo-technology. p. 223, 277, The C.V. Mosby Co., St. Louis (1980)). F&M staining identifies silver nitrate reducing molecules. In skin, this non-specific stain identifies primarily melanin. At least three sections per biopsy were processed. Each experiment was repeated at least three times.
# Swine were treated with either: the known skin darkening agent forskolin (Sigma) or with a Coleus forskoli extract (ATZ Naturals, Englewood Cliffs, N.J.) which contains forskolin, as a positive control at 1% (W/V); pigments at 1% or 5% (W/V); peptides of this invention at 250 μM or 500 μM; and combinations of such peptides at 250 μM or 500 μM with pigments at 1% (W/V). Pigments tested include pigmented natural extracts (i.e., Bearberry extract and Hedychium spicatum extract) and synthetic compounds (i.e., the soluble melanin compound Melasyn-100™). These test compounds were dissolved in ethanol: propylene glycol 70:30 (v/v). […]
# F&M-stained histological skin sections were evaluated for the change in pigment deposition within the treated site. […]
compound,measurement,setting,value
H2-Leu-Ile-Gly-Arg-NH2 (H-LIGR-NH2) [Peptide 1],Mean area,[1]; peptide alone 50 μM,0.080
same,% increase,[1]; peptide alone 50 μM,279%
same,Score (change in pigment deposition),[2],1-2
"C=C[C@@]1(C)CC(=O)[C@]2(O)[C@@]3(C)[C@@H](O)CCC(C)(C)[C@@H]3[C@H](O)[C@H](OC(C)=O)[C@@]2(C)O1 [Forskolin, reference compound]",Mean area,[1]; positive control 1% (W/V),0.067
same,% increase,[1]; positive control 1% (W/V),231.0%
same,Score (change in pigment deposition),[2],1
"[Cl][Cu][Cl] [CuCl2, copper chloride]",Mean area,[1]; pigment alone 0.001% (W/V),0.064
same,% increase,[1]; pigment alone 0.001% (W/V),220%
H2-Ser-Leu-Ile-Gly-Arg-Leu-NH2 (H-SLIGRL-NH2) [Peptide 3],Score (change in pigment deposition),[2],2-3
